The record followed here is patent US11851411B2, “Herbicidal compounds” (SYNGENTA CROP PROTECTION AG, priority 2018, dated 2023).

The structures appear in SMILES notation.

Type in all cases: in vivo
Test [1] concerns Setaria faberi (SETFA). Put plainly: Comparative experiment, post-emergence phytotoxicity. To be noted: POST Application; Rate 125 g/ha. The procedure: (§1) A comparative experiment is conducted to show the advantage provided by the compounds of the present invention. Thus the biological performance of representative compounds 1.001, 1.043, 2.002 & 2.024 of the present invention are compared with Compound C1, which is an aniline compound of the type referred to in WO2012/028579. Results are given as (%) phytotoxicity observed.

The test system of test [2] is Amaranthus retroflexus (AMARE). Described as above. The note with it: POST Application; Rate 125 g/ha. Here is the method:
as §1

In test [3] the test system is Amaranthus retoflexus (AMARE). Description: Glasshouse herbicide test, pre-emergence. The note with it: PRE Application; 500 g/h; evaluated after 13 days. The procedure:
(§2) Seeds of a variety of test species are shown in standard soil in pots (Lolium perenne (LOLPE), Amaranthus retoflexus (AMARE), Abutilon theophrasti (ABUTH), Setaria faberi (SETFA), Echinochloa crus-galli (ECHCG), Ipomoea hederacea (IPOHE)). After cultivation for one day (pre-emergence) or after 8 days cultivation (post-emergence) under controlled conditions in a glasshouse (at 24/16° C., day/night; 14 hours light; 65% humidity), the plants are sprayed with an aqueous spray solution derived from the formulation of the technical active ingredient in acetone/water (50:50) solution containing 0.5% Tween 20 (polyoxyethelyene sorbitan monolaurate, CAS RN 9005-64-5). Compounds are applied at 500 g/h. The test plants are then grown in a glasshouse under controlled conditions in a glasshouse (at 24/16° C., day/night; 14 hours light; 65% humidity) and watered twice daily. After 13 days for pre and post-emergence, the test is evaluated for the percentage damage caused to the plant. The biological activities are shown in the following table on a five point scale (5=80-100%; 4=60-79%; 3=40-59%; 2=20-39%; 1=0-19%).

Test [4] relates to Echinochloa crus-galli (ECHCG). Description: Glasshouse herbicide test, pre-emergence. To be noted: PRE Application; 500 g/h; evaluated after 13 days. Here is the method: as §2
For test [5], the system named is Ipomoea hederacea (IPOHE). Description: Glasshouse herbicide test, pre-emergence. To be noted: PRE Application; 500 g/h; evaluated after 13 days. Here is the method: as §2
In test [6] the test system is Setaria faberi (SETFA). Description: Glasshouse herbicide test, pre-emergence. The note with it: PRE Application; 500 g/h; evaluated after 13 days. The procedure:
as §2

Test [7] has as its system Abutilon theophrasti (ABUTH). Put plainly: Glasshouse herbicide test, pre-emergence. The note with it: PRE Application; 500 g/h; evaluated after 13 days. Here is the method:
as §2

For test [8], the system named is Amaranthus retoflexus (AMARE). Description: Glasshouse herbicide test, post-emergence. To be noted: POST Application; 500 g/h; evaluated after 13 days. Here is the method: as §2
For test [9], the system named is Echinochloa crus-galli (ECHCG). Put plainly: Glasshouse herbicide test, post-emergence. To be noted: POST Application; 500 g/h; evaluated after 13 days. Here is the method:
as §2

Test [10] relates to Ipomoea hederacea (IPOHE). Put plainly: Glasshouse herbicide test, post-emergence. To be noted: POST Application; 500 g/h; evaluated after 13 days. The procedure:
as §2

The subject of test [11] is Setaria faberi (SETFA). Description: Glasshouse herbicide test, post-emergence. To be noted: POST Application; 500 g/h; evaluated after 13 days. Here is the method: as §2
The test system of test [12] is Abutilon theophrasti (ABUTH). Description: Glasshouse herbicide test, post-emergence. To be noted: POST Application; 500 g/h; evaluated after 13 days. The procedure: as §2

Consider `CON(C)c1c(S(C)(=O)=O)ccc(C(=O)Nc2nnnn2C)c1Cl` [Compound 1.043, 2-chloro-3-[methoxy(methyl)amino]-4-methylsulfonyl-N-(1-methyltetrazol-5-yl)benzamide], for which the “(%) phytotoxicity observed, SETFA” value with Setaria faberi (SETFA) [1] is listed as 90%. The “(%) phytotoxicity observed, AMARE” value in test [2] was 100%. Further, the “percentage damage caused to the plant, five point scale, AMARE” value (shortened to “percentage damage caused … AMARE”) in [3] and in test [8] was 5 (5=80-100%) in each case. The “percentage damage caused to the plant, five point scale, ECHCG” value (from here on “percentage damage caused … ECHCG”) in test [4] and in test [9] was 5 (5=80-100%) throughout. Besides, the “percentage damage caused to the plant, five point scale, IPOHE” value (“percentage damage caused … IPOHE” for short) in test [5] and in [10] was 5 (5=80-100%) throughout. Besides, the “percentage damage caused to the plant, five point scale, SETFA” value (“percentage damage caused … SETFA” for short) in the test with Setaria faberi (SETFA) [6] and in the test with Setaria faberi (SETFA) [11] was 5 (5=80-100%) each time. The “percentage damage caused to the plant, five point scale, ABUTH” value (“percentage damage caused … ABUTH” for short) in test [7] and in [12] was 5 (5=80-100%) in each case.

As to `Cn1nnnc1NC(=O)c1ccc(C(F)(F)F)c(N)c1Cl` [Compound C1, reference compound], in the test with Setaria faberi (SETFA) [1], the “(%) phytotoxicity observed, SETFA” value came to 20%. In addition, the “(%) phytotoxicity observed, AMARE” value in [2] turned out to be 10%.

Regarding `CON(C(C)=O)c1c(C(F)(F)F)ccc(C(=O)Nc2nnc(C)o2)c1C` [Compound 2.002], in the test with Setaria faberi (SETFA) [1], the “(%) phytotoxicity observed, SETFA” value is on record as 90%. Also, the “(%) phytotoxicity observed, AMARE” value in test [2] is reported as 50%. Moreover, the “percentage damage caused … AMARE” value in test [3] and in test [8] was 5 (5=80-100%) in each case. The “percentage damage caused … ECHCG” value in test [4] and in test [9] was 5 (5=80-100%) in each case. Besides, the “percentage damage caused … IPOHE” value in test [5] and in test [10] was 5 (5=80-100%) each time. Further, the “percentage damage caused … SETFA” value in the test on Setaria faberi (SETFA) [6] and in the test on Setaria faberi (SETFA) [11] was 5 (5=80-100%) in each case. Also, the “percentage damage caused … ABUTH” value in test [7] and in test [12] was 5 (5=80-100%) in each case.

Turning to `CON(C(C)=O)c1c(C(F)(F)F)ccc(C(=O)Nc2nnnn2C)c1Cl` [Compound 1.001, 3-[acetyl(methoxy)amino]-2-chloro-N-(1-methyltetrazol-5-yl)-4-(trifluoromethyl)benzamide], in the test on Setaria faberi (SETFA) [1], the “(%) phytotoxicity observed, SETFA” value was found to be 90%. The “(%) phytotoxicity observed, AMARE” value in test [2] was found to be 90%. The “percentage damage caused … AMARE” value in test [3] and in test [8] was 5 (5=80-100%) in each case. The “percentage damage caused … ECHCG” value in [4] and in test [9] was 5 (5=80-100%) in each case. The “percentage damage caused … IPOHE” value in test [5] and in test [10] was 5 (5=80-100%) in each case. Further, the “percentage damage caused … SETFA” value in the test with Setaria faberi (SETFA) [6] and in the test with Setaria faberi (SETFA) [11] was 5 (5=80-100%) in each case. The “percentage damage caused … ABUTH” value in test [7] and in test [12] was 5 (5=80-100%) in each case.
